Measurements as given in US20180071303A1, “SYK INHIBITORS” (Gilead Sciences, Inc., priority 2016, published 2018).

How the values were obtained:
[1] = Nijjar J. S. et al., Rheumatology 2013; cited from earlier work
[2] = system: previously untreated AML; assay: phase 1b/2 study (NCT02343939) of entospletinib monotherapy followed by combination with daunorubicin and cytarabine; settings: for complete remission (CR) rate: with induction chemotherapy
Excerpt: Patients with residual disease two weeks after chemotherapy received a second induction cycle identical to the first.

| Structure (SMILES) | adverse side effects [1] | patients requiring a second induction ([2]; 200 mg BID, 3 patients) | complete remission (CR) rate ([2]; 200 mg BID, 3 patients) [%] | dose limiting toxicity (DLT) ([2]; 200 mg BID, three patients) | dose limiting toxicity (DLT) ([2]; 400 mg BID, 3 additional patients (DL 1 expanded)) | patients requiring a second induction ([2]; 400 mg BID, 6 patients) | complete remission (CR) rate ([2]; 400 mg BID, 6 patients) [%] | adverse event possibly related to entospletinib ([2]; 400 mg BID, one of three patients, with documented fungal pneumonia, did not meet DLT criteria) | platelet response during the window period ([2]; another patient with 11q23-rearranged AML, monotherapy window) | toxicities after combination with intensive chemotherapy ([2]; combination with daunorubicin and cytarabine) | tolerability of combination with intensive chemotherapy ([2]; doses up to 400 mg BID) | tolerability of single-agent entospletinib ([2]; monotherapy window period (up to 14 days), AML patients) | clinical activity in AML ([2]; overall conclusion) | most common non hematologic adverse events ([2]; overall, inclusive of intensive chemotherapy periods) | response after entospletinib monotherapy window ([2]; person with 11q23-rearranged AML, 14 day monotherapy, prior to chemotherapy) |
| --- | --- | --- | --- | --- | --- | --- | --- | --- | --- | --- | --- | --- | --- | --- | --- |
| COc1cc(Nc2ncc(F)c(Nc3ccc4c(n3)N(COP(=O)(O)O)C(=O)C(C)(C)O4)n2)cc(OC)c1OC [Fostamatinib] | hypertension, neutropenia and transaminitis | – | – | – | – | – | – | – | – | – | – | – | – | – | – |
| c1cn2cc(-c3ccc4cn[nH]c4c3)nc(Nc3ccc(N4CCOCC4)cc3)c2n1 [entospletinib] | – | two | 100 | no DLT was observed | none of whom experienced DLT | none | 100 | grade 3 pneumonitis | significant platelet response | common and typical | well tolerated | well tolerated | significant clinical activity | febrile neutropenia, nausea, and diarrhea | achieved morphologic and cytogenetic CR |
